Results on 20 compounds are retold here after US8586579B2, “Anellated pyridine compounds” (Hoffmann-La Roche Inc., priority 2010, dated 2013).

The target in data set [1] is human 5-HT2A receptor (Homo sapiens (Human), UniProt P28223). The data set can be described thus: Radioligand binding assay, [3H]-ketanserin, human 5-HT2A receptor. An outline of the steps:
(§1)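 Incubation was 1 h at RT, using 1.1 nM [3H]-ketanserin at 5-HT2A or 0.5 nM [3H]-spiperone at D3, on membranes of transiently transfected HEK293 EBNA cells. Nonspecific binding was set with 10 μM unlabelled spiperone.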

The target of data set [2] is human D2 receptor (Homo sapiens (Human), UniProt P14416). In words: Radioligand binding assay, [3H]-spiperone, human D2 receptor. The conditions noted are these: membranes of HEK293 EBNA cells expressing human D2; 0.7 nM [3H]-spiperone. An outline of the steps: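 Competition binding used ~0.7 nM [3H]-spiperone, 1 h at room temperature, pH 7.4 Tris/salt buffer, on transiently transfected HEK293 EBNA membranes bearing human D2.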
human D2 receptor, sequence (P14416 whole entry): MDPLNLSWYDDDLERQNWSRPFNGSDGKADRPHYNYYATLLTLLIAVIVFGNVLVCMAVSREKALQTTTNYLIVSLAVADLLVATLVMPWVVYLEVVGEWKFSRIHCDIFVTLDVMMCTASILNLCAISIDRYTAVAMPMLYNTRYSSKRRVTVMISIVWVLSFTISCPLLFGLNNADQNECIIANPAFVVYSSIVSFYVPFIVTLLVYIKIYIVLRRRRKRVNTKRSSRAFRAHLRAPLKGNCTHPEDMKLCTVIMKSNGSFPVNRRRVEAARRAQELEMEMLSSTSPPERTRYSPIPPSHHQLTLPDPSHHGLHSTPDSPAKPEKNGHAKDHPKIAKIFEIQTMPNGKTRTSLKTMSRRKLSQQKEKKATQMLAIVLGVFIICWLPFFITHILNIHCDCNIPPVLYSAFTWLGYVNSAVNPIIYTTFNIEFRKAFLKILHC

In data set [3] the target is human D3 receptor (Homo sapiens (Human), UniProt P35462). The data set can be described thus: Radioligand binding assay, [3H]-spiperone, human D3 receptor. The conditions noted are these: membranes of HEK293 EBNA cells expressing human D3; 0.5 nM [3H]-spiperone. Summed up:
as §1

[4] abbreviates: membranes of HEK293 EBNA cells expressing human 5-HT2A, 1.1 nM [3H]-ketanserin.

Like-named read-outs stand apart in the source and are kept apart here.

human D3 receptor, sequence (P35462 whole entry): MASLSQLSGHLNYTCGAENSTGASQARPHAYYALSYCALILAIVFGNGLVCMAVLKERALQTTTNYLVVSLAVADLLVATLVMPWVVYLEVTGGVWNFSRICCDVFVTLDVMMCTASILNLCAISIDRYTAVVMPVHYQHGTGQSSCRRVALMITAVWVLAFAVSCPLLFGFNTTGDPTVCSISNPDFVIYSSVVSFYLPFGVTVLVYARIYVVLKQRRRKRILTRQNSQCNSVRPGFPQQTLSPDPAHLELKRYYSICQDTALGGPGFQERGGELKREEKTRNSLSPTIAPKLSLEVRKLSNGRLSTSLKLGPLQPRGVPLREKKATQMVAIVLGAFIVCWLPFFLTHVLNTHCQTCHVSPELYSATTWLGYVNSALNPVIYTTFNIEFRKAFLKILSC
human 5-HT2A receptor, sequence (P28223 whole entry): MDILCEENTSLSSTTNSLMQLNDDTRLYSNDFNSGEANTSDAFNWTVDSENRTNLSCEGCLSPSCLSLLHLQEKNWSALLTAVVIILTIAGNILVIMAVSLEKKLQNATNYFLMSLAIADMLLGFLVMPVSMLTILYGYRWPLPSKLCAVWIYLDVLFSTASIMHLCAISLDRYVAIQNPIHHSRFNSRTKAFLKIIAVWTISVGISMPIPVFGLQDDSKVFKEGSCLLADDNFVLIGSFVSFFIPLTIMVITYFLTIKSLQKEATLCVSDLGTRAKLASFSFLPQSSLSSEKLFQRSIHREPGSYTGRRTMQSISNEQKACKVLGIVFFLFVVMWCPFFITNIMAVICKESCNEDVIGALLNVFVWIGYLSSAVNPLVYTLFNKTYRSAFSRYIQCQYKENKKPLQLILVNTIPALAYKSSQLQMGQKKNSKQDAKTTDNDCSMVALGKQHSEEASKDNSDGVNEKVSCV

Regarding `O=C(N[C@H]1CC[C@H](CCN2CCN(c3nccc4c3CCO4)CC2)CC1)c1ccc(N2CCOCC2)nc1` [Example 119, trans-N-(4-{2-[4-(2,3-Dihydro-furo[3,2-c]pyridin-4-yl)-piperazin-1-yl]-ethyl}-cyclohexyl)-6-morpholin-4-yl-nicotinamide], the melting point is 222 °C. The Ki in data set [1] amounted to 15.6 nM. The Ki in data set [2] is 998 nM. Besides, the inhibitory constant (Ki) in data set [3] was 44.7 nM.

Take `O=C(N[C@H]1CC[C@H](CCN2CCN(c3nccc4c3CCO4)CC2)CC1)c1ccc(-c2cccnc2)cc1` [Example 120, trans-N-(4-{2-[4-(2,3-Dihydro-furo[3,2-c]pyridin-4-yl)-piperazin-1-yl]-ethyl}-cyclohexyl)-4-pyridin-3-yl-benzamide]: the melting point stood at 218 °C. Also, the Ki in data set [1] (setting [4]) was determined as 12.3 nM. The inhibition constant (Ki) in data set [2] stood at 223 nM. In addition, in data set [3], the Ki turned out to be 16.1 nM.

As to `O=C(N[C@H]1CC[C@H](CCN2CCN(c3nccc4c3CCO4)CC2)CC1)c1ccc2c(c1)OCO2` [Example 121, Benzo[1,3]dioxole-5-carboxylic acid trans-(4-{2-[4-(2,3-dihydro-furo[3,2-c]pyridin-4-yl)-piperazin-1-yl]-ethyl}-cyclohexyl)-amide], the melting point is 243.5 °C. Also, in data set [1] (setting [4]), the Ki worked out at 17.6 nM. Moreover, the Ki in data set [2] stood at 3370 nM. In data set [3], the Ki was 21.8 nM.

The compound `O=C(Cc1ccc2c(c1)OCO2)N[C@H]1CC[C@H](CCN2CCN(c3nccc4c3CCO4)CC2)CC1` [Example 122, trans-2-Benzo[1,3]dioxol-5-yl-N-(4-{2-[4-(2,3-dihydro-furo[3,2-c]pyridin-4-yl)-piperazin-1-yl]-ethyl}-cyclohexyl)-acetamide] yielded a melting point of 212 °C. Besides, the Ki in data set [1] (setting [4]) worked out at 33.7 nM. Besides, in data set [2], the Ki turned out to be 3040 nM. For the same compound, the Ki in data set [3] is 18.6 nM.

`O=C(N[C@H]1CC[C@H](CCN2CCN(c3nccc4c3CCO4)CC2)CC1)C1(O)CCC1` [Example 123, 1-Hydroxy-cyclobutanecarboxylic acid trans-(4-{2-[4-(2,3-dihydro-furo[3,2-c]pyridin-4-yl)-piperazin-1-yl]-ethyl}-cyclohexyl)-amide] came in with a melting point of 177.5 °C. For the same compound, in data set [1] (setting [4]), the Ki amounted to 9.8 nM. Also, the Ki in data set [2] amounted to 959 nM. Besides, the Ki in data set [3] was 131 nM.

In turn, `O=C(N[C@H]1CC[C@H](CCN2CCN(c3nccc4c3CCO4)CC2)CC1)c1ccc(N2CCS(=O)(=O)CC2)cc1` [Example 125, trans-N-(4-{2-[4-(2,3-Dihydro-furo[3,2-c]pyridin-4-yl)-piperazin-1-yl]-ethyl}-cyclohexyl)-4-(1,1-dioxo-1λ6-thiomorpholin-4-yl)-benzamide] had a melting point of 261.5 °C. Further, the Ki in data set [1] (setting [4]) amounted to 16.6 nM. Also, in data set [2], the Ki was determined as 117 nM. In data set [3], the Ki was 14.4 nM.

`O=C(N[C@H]1CC[C@H](CCN2CCN(c3nccc4c3CCO4)CC2)CC1)c1ccc(-n2cccn2)cc1` [Example 126, trans-N-(4-{2-[4-(2,3-Dihydro-furo[3,2-c]pyridin-4-yl)-piperazin-1-yl]-ethyl}-cyclohexyl)-4-pyrazol-1-yl-benzamide] gave a melting point of 229 °C. For the same compound, the Ki in data set [1] (setting [4]) stood at 35.9 nM. Further, in data set [2], the Ki was found to be 478 nM. The Ki in data set [3] was found to be 44.3 nM.

`Cc1nc(-c2cccc(C(=O)N[C@H]3CC[C@H](CCN4CCN(c5nccc6c5CCO6)CC4)CC3)c2)no1` [Example 127, trans-N-(4-{2-[4-(2,3-Dihydro-furo[3,2-c]pyridin-4-yl)-piperazin-1-yl]-ethyl}-cyclohexyl)-3-(5-methyl-[1,2,4]oxadiazol-3-yl)-benzamide] registered a melting point of 218 °C. The Ki in data set [1] (setting [4]) came to 48.9 nM. Besides, the Ki in data set [2] amounted to 2150 nM. The Ki in data set [3] came to 19.5 nM.

`O=C(N[C@H]1CC[C@H](CCN2CCN(c3nccc4c3CCO4)CC2)CC1)c1ccc2ncccc2c1` [Example 128, Quinoline-6-carboxylic acid trans-(4-{2-[4-(2,3-dihydro-furo[3,2-c]pyridin-4-yl)-piperazin-1-yl]-ethyl}-cyclohexyl)-amide] yielded a melting point of 227 °C. For the same compound, the Ki in data set [1] (setting [4]) worked out at 23.2 nM. In data set [2], the Ki is 501 nM. Also, in data set [3], the Ki is 20.5 nM.

Turning to `O=C(Cc1noc2ccccc12)N[C@H]1CC[C@H](CCN2CCN(c3nccc4c3CCO4)CC2)CC1` [Example 129, trans-2-Benzo[d] isoxazol-3-yl-N-(4-{2-[4-(2,3-dihydro-furo[3,2-c]pyridin-4-yl)-piperazin-1-yl]-ethyl}-cyclohexyl)-acetamide], the melting point was 217.5 °C. The Ki in data set [1] came out at 27.8 nM. Moreover, the Ki in data set [2] is 1310 nM. Besides, in data set [3], the Ki amounted to 14.9 nM.

Compound `O=C(N[C@H]1CC[C@H](CCN2CCN(c3nccc4c3CCO4)CC2)CC1)c1cnc(N2CCOCC2)cn1` [Example 130, 5-Morpholin-4-yl-pyrazine-2-carboxylic acid trans-(4-{2-[4-(2,3-dihydro-furo[3,2-c]pyridin-4-yl)-piperazin-1-yl]-ethyl}-cyclohexyl)-amide] displayed a melting point of 192.5 °C. The Ki in data set [1] (setting [4]) was 18.4 nM. Further, the Ki in data set [2] turned out to be 506 nM. Further, the Ki in data set [3] was found to be 119 nM.

As for `CC(C)(C)c1ccc(C(=O)N[C@H]2CC[C@H](CCN3CCN(c4nccc5c4CCO5)CC3)CC2)cc1` [Example 131, trans-4-tert-Butyl-N-(4-{2-[4-(2,3-dihydro-furo[3,2-c]pyridin-4-yl)-piperazin-1-yl]-ethyl}-cyclohexyl)-benzamide], the melting point was 186.5 °C. In data set [1], the Ki came to 66.7 nM. Also, the inhibitory constant (Ki) in data set [2] is 1660 nM. The inhibition constant Ki in data set [3] amounted to 147 nM.

In turn, `O=C(N[C@H]1CC[C@H](CCN2CCN(c3nccc4c3CCO4)CC2)CC1)c1ccc(-n2cccc2)cc1` [Example 133, trans-N-(4-{2-[4-(2,3-Dihydro-furo[3,2-c]pyridin-4-yl)-piperazin-1-yl]-ethyl}-cyclohexyl)-4-pyrrol-1-yl-benzamide] registered a melting point of 234 °C. The Ki in data set [1] (setting [4]) is 24.2 nM. Also, the Ki in data set [2] worked out at 163 nM. Further, in data set [3], the Ki worked out at 24.4 nM.

Consider `O=C(N[C@H]1CC[C@H](CCN2CCN(c3nccc4c3CCO4)CC2)CC1)c1ccc(-c2ccccc2)cc1` [Example 134, Biphenyl-4-carboxylic acid trans-(4-{2-[4-(2,3-dihydro-furo[3,2-c]pyridin-4-yl)-piperazin-1-yl]-ethyl}-cyclohexyl)-amide], for which the melting point was 232 °C. Moreover, in data set [1] (setting [4]), the Ki was determined as 23.4 nM. The Ki in data set [2] stood at 1130 nM. Besides, in data set [3], the Ki was 18.6 nM.

`CO[C@H](C)C(=O)N[C@H]1CC[C@H](CCN2CCN(c3nccc4c3CCO4)CC2)CC1` [Example 135, trans-(R)—N-(4-{2-[4-(2,3-Dihydro-furo[3,2-c]pyridin-4-yl)-piperazin-1-yl]-ethyl}-cyclohexyl)-2-methoxy-propionamide] came in with a melting point of 159 °C. Further, the Ki in data set [1] (setting [4]) was 7 nM. Moreover, in data set [2], the Ki turned out to be 680 nM. The Ki in data set [3] was 109 nM.

In turn, `CC(C)(C)Oc1ccc(C(=O)N[C@H]2CC[C@H](CCN3CCN(c4nccc5c4CCO5)CC3)CC2)cc1` [Example 136, trans-4-tert-Butoxy-N-(4-{2-[4-(2,3-dihydro-furo[3,2-c]pyridin-4-yl)-piperazin-1-yl]-ethyl}-cyclohexyl)-benzamide] gave a melting point of 200 °C. The Ki in data set [1] (setting [4]) was found to be 41.4 nM. In addition, the inhibition constant (Ki) in data set [2] worked out at 3160 nM. Moreover, in data set [3], the Ki came out at 69.5 nM.

`CO[C@@H](C)C(=O)N[C@H]1CC[C@H](CCN2CCN(c3nccc4c3CCO4)CC2)CC1` [Example 137, trans-(S)—N-(4-{2-[4-(2,3-Dihydro-furo[3,2-c]pyridin-4-yl)-piperazin-1-yl]-ethyl}-cyclohexyl)-2-methoxy-propionamide] showed a melting point of 158.5 °C. The Ki in data set [1] (setting [4]) worked out at 20.1 nM. Further, the Ki in data set [2] is 788 nM. In addition, in data set [3], the Ki turned out to be 252 nM.

For the compound `O=S(=O)(N[C@H]1CC[C@H](CCN2CCN(c3nccc4c3CCO4)CC2)CC1)c1ccccc1` [Example 138, trans-N-(4-{2-[4-(2,3-Dihydro-furo[3,2-c]pyridin-4-yl)-piperazin-1-yl]-ethyl}-cyclohexyl)-benzenesulfonamide], the melting point turned out to be 168.5 °C. In data set [1] (setting [4]), the Ki was 70.5 nM. Besides, the inhibitory constant (Ki) in data set [2] is 243 nM. In addition, the Ki in data set [3] is 15.5 nM.

`COC(C)CC(=O)N[C@H]1CC[C@H](CCN2CCN(c3nccc4c3CCO4)CC2)CC1` (stereo partly drawn) [Example 139, trans-N-(4-{2-[4-(2,3-Dihydro-furo[3,2-c]pyridin-4-yl)-piperazin-1-yl]-ethyl}-cyclohexyl)-3-methoxy-butyramide] registered a melting point of 167 °C. Further, the Ki in data set [1] was found to be 30.4 nM. Further, in data set [2], the Ki amounted to 801 nM. In addition, in data set [3], the Ki came to 40.6 nM.

Compound `CC[C@@H](O)CC(=O)N[C@H]1CC[C@H](CCN2CCN(c3nccc4c3CCO4)CC2)CC1` [Example 140, (R)-3-Hydroxy-pentanoic acid trans-(4-{2-[4-(2,3-dihydro-furo[3,2-c]pyridin-4-yl)-piperazin-1-yl]-ethyl}-cyclohexyl)-amide] yielded a melting point of 161 °C. The inhibition constant Ki in data set [1] is 42 nM. Besides, the Ki in data set [2] came out at 843 nM. In addition, the inhibition constant Ki in data set [3] worked out at 44.4 nM.
